“And” between values parts separate entries of the source, which are not always exact repeats. Identical values can stand only once. “Also recorded” adds a separate entry of the source.
Experiments:
[1] = tested on: patients with metastatic urothelial cancer (mUC); experiment: Phase I/II trial IMMU-132-01 (NCT01631552), mUC cohort: efficacy by RECIST 1.1; type: in vivo, human; conditions: for ORR (objective response rate): 10 mg/kg days 1 and 8 of 21-day cycles
Method: Endpoints included safety, investigator-evaluated objective response rate (ORR per RECIST 1.1), clinical benefit rate, duration of response (DOR), progression-free survival (PFS), and overall survival (OS). Sequencing analysis of differentially mutated and expressed genes and pathways was performed in subsets of tumors from responders and non-responders.
All patients had metastatic disease measurable by Response Evaluation Criteria in Solid Tumors, version 1.1 (RECIST 1.1) at the time of enrollment. Patients were required to have an Eastern Cooperative Oncology Group (ECOG) performance status of 0 to 1 with expected survival ≥6 months and adequate hepatic, renal, and hematologic function. […] Patients with stable brain metastases could be included only if they were ≥2 weeks beyond high-dose steroid treatment. Pre-selection of patients based on tumor Trop-2 expression was not required.
Hematopoietic growth factors or blood transfusions were allowed at the investigator's discretion, but not prior to the first dose. Other supportive care (antiemetics, anti-diarrheal medications, or bone-stabilizing agents) were allowed as medically needed.
Staging CT/magnetic resonance imaging (MRI) scans were obtained at baseline and at 8-week intervals from the start of treatment until progression requiring treatment discontinuation. […] Subsequent scans were done at 8-week intervals after the confirmatory scan. Patients with evidence of clinical benefit were permitted to receive treatment following disease progression. Response was assessed by investigators using RECIST, version 1.1. Efficacy endpoints included objective response rate (ORR), time to response, duration of response (DOR), clinical benefit rate (CBR; defined as CR, PR, or stable disease ≥6 months), progression-free survival (PFS), and overall survival (OS).
The data cut-off date for this analysis was Sep. 1, 2018. ORR and CBR were calculated with 95% confidence intervals estimated by the Clopper-Pearson method (Clopper & Pearson, 1934, Biometrika 26:404-13). PFS, OS, and time-to-event endpoints were analyzed by the Kaplan-Meier method, with medians and corresponding 95% confidence intervals determined by the Brookmeyer and Crowley method with log-log transformation. Descriptive statistics were used to characterize AEs. Fischer's exact test was applied to a matrix of pathway-associated gene counts of mutated and wild type phenotypes between responders and non-responders to identify pathways enriched in either of the two response groups. P-values for single sample GSEA (ssGSEA) enrichment score differences between the responder and non-responder patient groups were obtained from the Mann-Whitney statistical test.

[2] = tested on: patients with metastatic TNBC; experiment: Phase I/II trial (NCT01631552), metastatic TNBC: adverse events; type: in vivo, human; conditions: N = 108
Description: Patients with relapsed/refractory TNBC who had previously failed at at least one prior line of therapy were enrolled in a single-arm, multicenter trial (Bardia et al., 2019, N Engl J Med 380:741-51). The present study reports on 108 patients who had failed at least two prior lines of therapy (median three prior therapies) (Bardia et al., 2019, N Engl J Med 380:741-51). […] For severe treatment-related adverse events, a 25% dose reduction was allowed after the first occurrence, 50% after the second and discontinuation after the third. Of the 108 patients, 107 were female and 1 was male, with a median age of 55. Prior therapies included treatment with taxanes (98%), anthracyclines (86%), platinum agents (69%), gemcitabine (55%), eribulin (45%) and checkpoint inhibitors (17%). Tumor staging was performed by computed tomography (CT) and MRI at baseline, followed up at 8 week intervals from the start of treatment until disease progression.

patients with mSCLC [3] = experiment: Antibody responses to sacituzumab govitecan, the IgG antibody and SN-38 in serum (ELISA), mSCLC; type: in vivo, human; conditions: treatment up to 22 months, up to 63 doses
Method: Positivity required at least 10% of the tumor cells to be stained, with an intensity scored as 1+(weak), 2+(moderate), and 3+(strong). […] Assay sensitivity is 50 ng/mL for the ADC and the IgG, and 170 ng/mL for anti-SN-38 antibody.

patients with mSCLC [4] = conditions: in vivo
Method: Doses of 8 or 10 mg/kg were given on days 1 and 8 of a 21-day cycle, with contingencies to delay (maximum of 2 weeks). Toxicities were managed by supportive hematopoietic growth-factor therapy for blood cell reduction, dose delays and/or modification as specified in the protocol (e.g., 25% of prior dose), or by standard medical practice. Treatment was continued until disease progression, initiation of alternative anticancer therapy, unacceptable toxicity, or withdrawal of consent.
Safety evaluations were conducted during scheduled visits or more frequently if warranted.
Statistical Analyses—The data included in the analyses were derived from patients enrolled from November 2013 to June 2016, with follow-up through Jan. […] The frequency and severity of adverse events (AEs) were defined by MedDRA Preferred Term and System Organ Class (SOC) version 10, with severity assessed by NCI-CTCAE v4.03.

[5] = tested on: patients with diverse metastatic cancers; conditions: human, in vivo
Description: In the Phase I and the expansion phases, there are now 48 pts (excluding PDC) who are assessable by RECIST/CT for best response.

[6] = tested on: patients with metastatic TNBC; conditions: second line or later (Bardia et al., 2019); cited from earlier work
patients with mSCLC [7] = conditions: 53 mSCLC patients (Gray et al., 2017); cited from earlier work
[8] = 10 mg/kg, N = 45, listed as Sacituzumab Govitecan

Substance: sacituzumab govitecan
- ORR (objective response rate) ([1]; N = 45, 10 mg/kg): 31% and 31.1%
- ORR (objective response rate) ([1]; N = 45, listed as Sacituzumab Govitecan, 10 mg/kg): 31.1%
- ORR, prior CPI- and platinum-treated patients ([1]; 10 mg/kg, 4 of 15, 10 mg/kg): 27% and 26.7%
- ORR, prior CPI-treated patients ([1]; 10 mg/kg, 4 of 17, 10 mg/kg): 24% and 23.5%
- ORR, patients with liver metastases ([1]; 10 mg/kg, 5 of 15, 10 mg/kg): 33% and 33.3%
- ORR, patients with any visceral involvement ([1]; 10 mg/kg, 9 of 33): 27.3%
- Clinical benefit rate, No. of patients ([1]; 10 mg/kg, N = 45): 21
- Median OS ([1]; 10 mg/kg, N = 45): 16.3 months
- Median PFS ([1]; 10 mg/kg, N = 45): 7.3 months
- ORR, No. of patients ([1]; 10 mg/kg, N = 45): 14
- CR, % of patients ([1]; 10 mg/kg, N = 45, 10 mg/kg): (4.4) %
- PD, % of patients ([1]; 10 mg/kg, N = 45, 10 mg/kg): (22.2) %
- PR, % of patients ([1]; 10 mg/kg, N = 45, 10 mg/kg): (26.7) %
- CR, % of patients [1, 8]: 4.4%
- PD, % of patients [1, 8]: 22.2%
- PR, % of patients [1, 8]: 26.7%
- Median DOR (duration of response) ([1]; 10 mg/kg, responders n = 14): 12.9 months
- Time to onset of response, median ([1]; 10 mg/kg, responders n = 14): 1.9 months
- Time to onset of response, range ([1]; 10 mg/kg, responders n = 14): 1.7-7.4 months
- Ongoing response of patients still on treatment at time of analysis ([1]; 3 patients, FIG. 1B): > 17 months and > 19 months and > 29 months
- Responders with response duration of more than 12 months ([1]; 7 of 14 responders): 50%
- Patients with a reduction of target lesions ([1]; 31 of 40 patients with post-baseline assessment): 77.5%
- Anemia, % of patients [2]: 50%
- Anemia, grade 3 [2]: 11%
- Decreased white blood cell count, grade 4 [2]: 3%
- Diarrhea, % of patients [2]: 62%
- Diarrhea, grade 3 [2]: 8%
- Fatigue, % of patients [2]: 55%
- Fatigue, grade 3 [2]: 8%
- Hyperglycemia, grade 4 [2]: 1%
- Nausea, % of patients [2]: 67%
- Nausea, grade 3 [2]: 6%
- Neutropenia, % of patients [2]: 64%
- Neutropenia, grade 3 [2]: 26%
- Neutropenia, grade 4 [2]: 16%
- Vomiting, % of patients [2]: 49%
- Vomiting, grade 3 [2]: 6%
- Immunogenicity: antibodies to sacituzumab govitecan, the hRS7 antibody, or SN-38 (patients with mSCLC [3]): not immunogenic; also recorded: No neutralizing antibodies
- Anemia, grade 3 or 4 (patients with mSCLC [4]): 8%
- Diarrhea, grade 3 or 4 (patients with mSCLC [4]): 9%
- Fatigue, grade 3 or 4 (patients with mSCLC [4]): 13%
- Hyponatremia, grade 3 or 4 (patients with mSCLC [4]): 8%
- Increased alkaline phosphatase, grade 3 or 4 (patients with mSCLC [4]): 8%
- Infusion-related reactions (patients with mSCLC [4]): No infusion-related reactions were reported
- Neutropenia, grade 3 or 4 (patients with mSCLC [4]): 34%
- Patients with dose reduction (patients with mSCLC [4]; 8 mg/kg): 13%
- Anti-hRS7 or anti-SN-38 antibodies [5]: No anti-hRS7 or anti-SN-38 antibodies were detected
- Median progression-free survival (PFS) [6]: 5.5 months
- Overall survival (OS) [6]: 13.0 months
- Response rate [6]: 33.3%
- Median OS (patients with mSCLC [7]): 7.5 months
- Median PFS (patients with mSCLC [7]): 3.7 months
- Median response duration (patients with mSCLC [7]): 5.7 months
- ORR (patients with mSCLC [7]): 14%
- Patients with tumor shrinkage from baseline (patients with mSCLC [7]): Sixty

Source: patent publication US20210316003A1 (Immunomedics, Inc., priority 2020, published 2021)
